{"source": "patent US9403805B2", "about": "“Antiviral compounds” (Hoffmann-La Roche Inc., priority 2012, dated 2016)", "data": [{"tested_on": "HCV GT1b replicon", "assay": "HCV GT1b replicon luciferase reporter assay (2209-23 cells)", "type": "cell-based", "details": "Hepatitis C virus, genotype 1a / genotype 1b; 2209-23 cells (Huh-7 with GT-1b Con1 subgenomic replicon), Renilla luciferase read 72 hours after compound addition; read-out: GT-1a - EC50 (nM) HCV, GT1b, IC50 (µM)", "from_the_text": "Determination of compounds HCV GT1b inhibitory replicon activity using the replicon luciferase reporter assay\nThe 2209-23 cell line was developed at Roche by stable transfection of the hepatoma cell line Huh-7 with a GT-1b Con1 subgenomic bicistronic replicon as previously described. Subgenomic replicon cell line was established in cured Huh7 cells, obtained from R. Bartenschlager (J Virol. 2003 March; 77 (5):3007-19) The GT-1a H77 subgenomic replicon vector pRLuc H77 1b 75 S/I, was created by replacing the nonstructural region of the GT-1b Con1 subgenomic replicon by the one of the H77 strain, except for the first 75 amino acids of the NS3 protein that are from GT-1b Conl strain. (J. Virol. 2001 77:5352-59) The GT-1a pRLuc H77 1b 75 S/I subgenomic replicon cell line was established in cured Huh7 cells, obtained from R. Bartenschlager. (J Virol. 2003 March; 77 (5):3007-19)\nAll the subgenomic replicon cell lines were cultured in Dulbecco's Modified Eagle Medium (DMEM-Glutamax™-I; Invitrogen Cat #10569-010). The medium was supplemented with 10% Fetal Bovine Serum (Invitrogen Cat #10082-147), 1% penicillin/streptomycin (Mediatech Cat #30-002-CI) and 500 μg/ml of G418 (Mediatech Cat #30-234-CI). Cells were maintained at 37° C. in a humidified 5% CO2 atmosphere.\n2209-23 cells were plated at a cell density of 5000 cells per well in 96 well plates (Becton Dickinson, Cat #35 3296). Cells were plated in 90 μl of Dulbecco's Modified Eagle Medium (DMEM-Glutamax™-I), (Invitrogen Cat #10569-010) medium was supplemented with 5% Fetal Bovine Serum (Invitrogen Cat #10082-147), 1% penicillin/streptomycin (Mediatech Cat #30-002-CI). The pRluc H77 1b 75 SA cells were plated in 96-well plate at 3000 cells/well in DMEM-Glutamax™-I containing 5% FBS and 1% penicillin/streptomycin in 90 μl final volume. Cells were allowed to equilibrate for 24 hours at 37° C. and 5% CO2 at which time compounds were added. Compounds (or medium as a control) were added 24 hours post-plating in 3 fold dilutions at a final DMSO concentration of 1% in 10 μl volume. Renilla luciferase reporter signal was read 72 hours after addition of compounds using the Renilla Luciferase Assay System (Promega, cat #E2820). EC50 values were defined as the compound concentration at which a 50% reduction in the levels of renilla luciferase reporter was observed as compared to control samples in the absence of compound and was determined by non-linear fitting of compound dose-response data. The EC50 was approximated if maximum percentage inhibition was less than 90% and more than 70%.", "units": {"IC50": "nM"}, "values": [{"smiles": "CC(C)(C)OC(=O)[C@@H]1C[C@H](NC(=O)c2ccc3ccccc3c2O)CN1CC1CCCCC1", "note": "[Compound I-1, (2S,4S)-1-Cyclohexylmethyl-4-[(1-hydroxy-naphthalene-2-carbonyl)-amino]-pyrrolidine-2-carboxylic acid tert-butyl ester]", "IC50": 47}, {"smiles": "COC(=O)[C@@H]1C[C@H](NC(=O)c2ccc3ccccc3c2O)CN1CCC(C)(C)C", "note": "[Compound I-2, (2S,4S)-1-(3,3-Dimethyl-butyl)-4-[(1-hydroxy-naphthalene-2-carbonyl)-amino]-pyrrolidine-2-carboxylic acid methyl ester]", "IC50": 79}, {"smiles": "CCOC(=O)[C@@H]1C[C@H](NC(=O)c2ccc3ccccc3c2O)CCN1CC1CCCCC1", "note": "[Compound I-3, (2S,4R)-1-Cyclohexylmethyl-4-[(1-hydroxy-naphthalene-2-carbonyl)-amino]-piperidine-2-carboxylic acid ethyl ester]", "IC50": 51}, {"smiles": "CCOC(=O)[C@@H]1C[C@H](NC(=O)c2ccc3ccccc3c2O)CN1CC1CCCCC1", "note": "[Compound I-4, (2S,4S)-1-Cyclohexylmethyl-4-[(1-hydroxy-naphthalene-2-carbonyl)-amino]-pyrrolidine-2-carboxylic acid ethyl ester]", "IC50": 29}, {"smiles": "O=C(N[C@H]1C[C@@H](c2nc3ccccc3o2)N(CC2CCCCC2)C1)c1ccc2ccccc2c1O", "note": "[Compound I-5, 1-Hydroxy-naphthalene-2-carboxylic acid ((3S,5S)-5-benzooxazol-2-yl-1-cyclohexylmethyl-pyrrolidin-3-yl)-amide]", "IC50": 52}, {"smiles": "COC(=O)[C@@H]1C[C@H](NC(=O)c2ccc3ccccc3c2O)CCN1CC1CCCCC1", "note": "[Compound I-6, (2S,4R)-1-Cyclohexylmethyl-4-[(1-hydroxy-naphthalene-2-carbonyl)-amino]-piperidine-2-carboxylic acid methyl ester]", "IC50": 55}, {"smiles": "Cc1cnc([C@@H]2C[C@H](NC(=O)c3ccc4ccccc4c3O)CN2CC2CCCCC2)o1", "note": "[Compound I-7, 1-Hydroxy-naphthalene-2-carboxylic acid [(3S,5S)-1-cyclohexylmethyl-5-(5-methyl-oxazol-2-yl)-pyrrolidin-3-yl]-amide]", "IC50": 70}, {"smiles": "O=C(N[C@H]1C[C@@H](c2ncc(-c3ccccc3)o2)N(CC2CCCCC2)C1)c1ccc2ccccc2c1O", "note": "[Compound I-8, 1-Hydroxy-naphthalene-2-carboxylic acid [(3S,5S)-1-cyclohexylmethyl-5-(5-phenyl-oxazol-2-yl)-pyrrolidin-3-yl]-amide]", "IC50": 86}, {"smiles": "O=C(N[C@H]1C[C@@H](c2ncco2)N(CC2CCCCC2)C1)c1ccc2ccccc2c1O", "note": "[Compound I-9, 1-Hydroxy-naphthalene-2-carboxylic acid ((3S,5S)-1-cyclohexylmethyl-5-oxazol-2-yl-pyrrolidin-3-yl)-amide]", "IC50": 114}, {"smiles": "COC(=O)[C@@H]1C[C@H](NC(=O)c2ccc3ccccc3c2O)CN1CC1CCCCC1", "note": "[Compound I-10, (2S,4S)-1-Cyclohexylmethyl-4-[(1-hydroxy-naphthalene-2-carbonyl)-amino]-pyrrolidine-2-carboxylic acid methyl ester]", "IC50": 120}, {"smiles": "COC(=O)[C@@H]1C[C@H](NC(=O)c2ccc3ccccc3c2O)CN1Cc1ccccc1", "note": "[Compound I-11, (2S,4S)-1-Benzyl-4-[(1-hydroxy-naphthalene-2-carbonyl)-amino]-pyrrolidine-2-carboxylic acid methyl ester]", "IC50": 121}, {"smiles": "CCOC(=O)[C@@H]1C[C@H](NC(=O)c2ccc3ccccc3c2O)CN1CC1CCCC1", "note": "[Compound I-12, (2S,4S)-1-Cyclopentylmethyl-4-[(1-hydroxy-naphthalene-2-carbonyl)-amino]-pyrrolidine-2-carboxylic acid ethyl ester]", "IC50": 129}, {"smiles": "O=C(N[C@H]1C[C@@H](C(=O)NCc2ccccc2)N(CC2CCCCC2)C1)c1ccc2ccccc2c1O", "note": "[Compound I-13, (2S,4S)-1-Cyclohexylmethyl-4-[(1-hydroxy-naphthalene-2-carbonyl)-amino]-pyrrolidine-2-carboxylic acid benzylamide]", "IC50": 163}, {"smiles": "CCOC(=O)[C@@H]1C[C@H](NC(=O)c2ccc3ccccc3c2O)CN1C(=O)C1CCCCC1", "note": "[Compound I-14, (2S,4S)-1-Cyclohexanecarbonyl-4-[(1-hydroxy-naphthalene-2-carbonyl)-amino]-pyrrolidine-2-carboxylic acid ethyl ester]", "IC50": 184}, {"smiles": "CC(C)NC(=O)[C@@H]1C[C@H](NC(=O)c2ccc3ccccc3c2O)CN1CC1CCCCC1", "note": "[Compound I-15, (2S,4S)-1-Cyclohexylmethyl-4-[(1-hydroxy-naphthalene-2-carbonyl)-amino]-pyrrolidine-2-carboxylic acid isopropylamide]", "IC50": 187}, {"smiles": "CCCNC(=O)[C@@H]1C[C@H](NC(=O)c2ccc3ccccc3c2O)CN1CC1CCCCC1", "note": "[Compound I-16, (2S,4S)-1-Cyclohexylmethyl-4-[(1-hydroxy-naphthalene-2-carbonyl)-amino]-pyrrolidine-2-carboxylic acid propylamide]", "IC50": 205}, {"smiles": "CCOC(=O)[C@@H]1C[C@H](NC(=O)c2ccc3ccccc3c2O)CN1CC1CCC1", "note": "[Compound I-17, (2S,4S)-1-Cyclobutylmethyl-4-[(1-hydroxy-naphthalene-2-carbonyl)-amino]-pyrrolidine-2-carboxylic acid ethyl ester]", "IC50": 219}, {"smiles": "CCNC(=O)[C@@H]1C[C@H](NC(=O)c2ccc3ccccc3c2O)CN1CC1CCCCC1", "note": "[Compound I-18, (2S,4S)-1-Cyclohexylmethyl-4-[(1-hydroxy-naphthalene-2-carbonyl)-amino]-pyrrolidine-2-carboxylic acid ethylamide]", "IC50": 221}, {"smiles": "CCNC(=O)[C@@H]1C[C@H](NC(=O)c2ccc3ccccc3c2O)CCN1CC1CCCCC1", "note": "[Compound I-19, (2S,4R)-1-Cyclohexylmethyl-4-[(1-hydroxy-naphthalene-2-carbonyl)-amino]-piperidine-2-carboxylic acid ethylamide]", "IC50": 223}, {"smiles": "COC(=O)[C@H]1C[C@H](NC(=O)c2ccc3ccccc3c2O)CN1CC1CCCCC1", "note": "[Compound I-20, (2R,4S)-1-Cyclohexylmethyl-4-[(1-hydroxy-naphthalene-2-carbonyl)-amino]-pyrrolidine-2-carboxylic acid methyl ester]", "IC50": 233}, {"smiles": "COC(=O)[C@]1(C)C[C@H](NC(=O)c2ccc3ccccc3c2O)CN1CC1CCCCC1", "note": "[Compound I-21, (2S,4S)-1-Cyclohexylmethyl-4-[(1-hydroxy-naphthalene-2-carbonyl)-amino]-2-methyl-pyrrolidine-2-carboxylic acid methyl ester]", "IC50": 247}, {"smiles": "CCOC(=O)[C@@H]1C[C@H](NC(=O)c2ccc3ccccc3c2O)CN1CC(C)C", "note": "[Compound I-22, (2S,4S)-4-[(1-Hydroxy-naphthalene-2-carbonyl)-amino]-1-isobutyl-pyrrolidine-2-carboxylic acid ethyl ester]", "IC50": 299}, {"smiles": "COC(=O)[C@@H]1C[C@H](NC(=O)c2ccc3ccccc3c2N)CN1CC1CCCCC1", "note": "[Compound I-23, (2S,4S)-4-[(1-Amino-naphthalene-2-carbonyl)-amino]-1-cyclohexylmethyl-pyrrolidine-2-carboxylic acid methyl ester]", "IC50": 336}, {"smiles": "CCOC(=O)[C@@H]1C[C@H](NC(=O)c2ccc3cccnc3c2O)CN1CC1CCCCC1", "note": "[Compound I-24, (2S,4S)-1-Cyclohexylmethyl-4-[(8-hydroxy-quinoline-7-carbonyl)-amino]-pyrrolidine-2-carboxylic acid ethyl ester]", "IC50": 367}, {"smiles": "NC(=O)[C@@H]1C[C@H](NC(=O)c2ccc3ccccc3c2O)CN1CC1CCCCC1", "note": "[Compound I-25, (2S,4S)-1-Cyclohexylmethyl-4-[(1-hydroxy-naphthalene-2-carbonyl)-amino]-pyrrolidine-2-carboxylic acid amide]", "IC50": 509}, {"smiles": "O=C(N[C@H]1C[C@@H](C(=O)N2CCCC2)N(CC2CCCCC2)C1)c1ccc2ccccc2c1O", "note": "[Compound I-26, 1-Hydroxy-naphthalene-2-carboxylic acid [(3S,5S)-1-cyclohexylmethyl-5-(pyrrolidine-1-carbonyl)-pyrrolidin-3-yl]-amide]", "IC50": 640}, {"smiles": "CCOC(=O)[C@@H]1C[C@@H](NC(=O)c2ccc3ccccc3c2O)CN1Cc1ccccc1", "note": "[Compound I-27, (2S,4R)-1-Benzyl-4-[(1-hydroxy-naphthalene-2-carbonyl)-amino]-pyrrolidine-2-carboxylic acid ethyl ester]", "IC50": 659}]}]}
